Source: ChEMBL document CHEMBL1201862, “PubChem BioAssay data set” (2004)
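Growth conditions: 96-well plates. Treatment: test compound, 48 hours, 5 concentrations. Analysis: linear interpolation between bracketing concentrations; unreached endpoints set to highest concentration. GI50 is the concentration that inhibits growth by half.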 Active and inactive are the calls of the source. No stated cut-off is given here; in the data, active = GI50 up to about 1.1 µM and inactive = higher.

Tests used:
Assay in all cases: DTP human tumour cell line panel, 48 h
CAKI-1 = tested on: CAKI-1
SK-MEL-5 = tested on: SK-MEL-5
HCT-15 = tested on: HCT-15
MCF7 = tested on: MCF7
OVCAR-4 = tested on: OVCAR-4
NCI-H522 = tested on: NCI-H522
RXF 393 = tested on: RXF 393
SF-268 = tested on: SF-268
Malme-3M = tested on: Malme-3M
NCI-H23 = tested on: NCI-H23
MDA-N = tested on: MDA-N
RPMI-8226 = tested on: RPMI-8226
KM12 = tested on: KM12
UO-31 = tested on: UO-31
U-251 = tested on: U-251
HCC 2998 = tested on: HCC 2998
SK-OV-3 = tested on: SK-OV-3
UACC-62 = tested on: UACC-62
A549 = tested on: A549
TK-10 = tested on: TK-10

Row | Compound | GI50 (CAKI-1) | GI50 (SK-MEL-5) | GI50 (HCT-15) [µM] | GI50 (MCF7) | GI50 (OVCAR-4) | GI50 (NCI-H522) | GI50 (RXF 393) | GI50 (SF-268) | GI50 (Malme-3M) | GI50 (NCI-H23) | GI50 (MDA-N) | GI50 (RPMI-8226) | GI50 (KM12) | GI50 (UO-31) | GI50 (U-251) | GI50 (HCC 2998) | GI50 (SK-OV-3) | GI50 (UACC-62) | GI50 (A549) | GI50 (TK-10)
1 | COc1ccc(C2C=C(c3ccc4c(c3)OCO4)Oc3c2c(=O)oc2ccccc32)cc1OC (stereo unspecified) | 0.425 µM (active) | 0.324 µM (active) | 0.415 | 0.434 µM (active) | > 100 µM (inactive) | 0.303 µM (active) | 0.252 µM (active) | 0.713 µM (active) | 0.366 µM (active) | 0.446 µM (active) | 0.15 µM (active) | 0.254 µM (active) | 0.443 µM (active) | 0.527 µM (active) | 0.413 µM (active) | 0.506 µM (active) | 0.372 µM (active) | 0.294 µM (active) | 1.05 µM (active) | –
2 | O=C(/C=C1/Nc2ccc([N+](=O)[O-])cc2N/C1=C/C(=O)c1ccc(Cl)cc1)c1ccccc1 | > 100 µM (inactive) | > 100 µM (inactive) | > 100 | > 100 µM (inactive) | > 100 µM (inactive) | 12.6 µM (inactive) | 23.8 µM (inactive) | 30.4 µM (inactive) | > 100 µM (inactive) | 20.3 µM (inactive) | > 100 µM (inactive) | – | > 100 µM (inactive) | > 100 µM (inactive) | 30.8 µM (inactive) | > 100 µM (inactive) | 58.7 µM (inactive) | 20.5 µM (inactive) | > 100 µM (inactive) | 59 µM (inactive)
3 | Cc1cc2[nH]c3c(C#N)c(-c4ccccc4)c(/C=N/c4ccc(Cl)cc4)c(=O)n3c2cc1C | > 100 µM (inactive) | > 100 µM (inactive) | > 100 | > 100 µM (inactive) | > 100 µM (inactive) | > 100 µM (inactive) | > 100 µM (inactive) | > 100 µM (inactive) | > 100 µM (inactive) | > 100 µM (inactive) | > 100 µM (inactive) | > 100 µM (inactive) | > 100 µM (inactive) | > 100 µM (inactive) | > 100 µM (inactive) | > 100 µM (inactive) | > 100 µM (inactive) | – | > 100 µM (inactive) | > 100 µM (inactive)
4 | COc1ccc(-c2cc(=O)c3c(O)cc(O)cc3o2)cc1OC | – | 23 µM (inactive) | > 100 | > 100 µM (inactive) | > 100 µM (inactive) | 16.7 µM (inactive) | 46.3 µM (inactive) | 28.4 µM (inactive) | > 100 µM (inactive) | > 100 µM (inactive) | > 100 µM (inactive) | 64.9 µM (inactive) | 33 µM (inactive) | 36.7 µM (inactive) | 30 µM (inactive) | > 100 µM (inactive) | 47.4 µM (inactive) | 61.4 µM (inactive) | > 100 µM (inactive) | > 100 µM (inactive)
5 | C=CCOC(=O)N1c2ccc(O)cc2[C@@]23O[C@@]24[C@@H]1C#C/C=C\C#C[C@]3(O)C(=O)C[C@@H]4C | > 100 µM (inactive) | 21.5 µM (inactive) | > 100 | 61.8 µM (inactive) | 0.0231 µM (active) | 40.1 µM (inactive) | > 100 µM (inactive) | 79.1 µM (inactive) | 98.2 µM (inactive) | 22.7 µM (inactive) | > 100 µM (inactive) | 25.6 µM (inactive) | > 100 µM (inactive) | 54.3 µM (inactive) | 95.9 µM (inactive) | > 100 µM (inactive) | – | 99.8 µM (inactive) | 32 µM (inactive) | > 100 µM (inactive)
6 | Cc1csc(NNC(=O)Nc2ccccc2)n1 | > 100 µM (inactive) | > 100 µM (inactive) | > 100 | > 100 µM (inactive) | > 100 µM (inactive) | > 100 µM (inactive) | > 100 µM (inactive) | > 100 µM (inactive) | > 100 µM (inactive) | > 100 µM (inactive) | > 100 µM (inactive) | > 100 µM (inactive) | > 100 µM (inactive) | 45.7 µM (inactive) | > 100 µM (inactive) | > 100 µM (inactive) | > 100 µM (inactive) | > 100 µM (inactive) | > 100 µM (inactive) | –
7 | CCOC(=O)CCc1c(C)c2ccc(O)cc2oc1=O | > 100 µM (inactive) | > 100 µM (inactive) | > 100 | > 100 µM (inactive) | > 100 µM (inactive) | > 100 µM (inactive) | > 100 µM (inactive) | > 100 µM (inactive) | > 100 µM (inactive) | > 100 µM (inactive) | > 100 µM (inactive) | > 100 µM (inactive) | – | – | > 100 µM (inactive) | > 100 µM (inactive) | – | > 100 µM (inactive) | > 100 µM (inactive) | > 100 µM (inactive)
